In US20220315631A1, “STAPLED BETA-CATENIN LIGANDS” (Ohio State Innovation Foundation, priority 2019, published 2022):
Starred links: 1 amine or outer side, 2 acyl side, 3 side chain; linkers in the order of their positions; H or OH if unused. Positions of bridges follow the written chain, without caps; N, C: chain ends. Residues, ends and D or L forms follow the SMILES beside them. *: point of attachment. 5FAM = O=C1OC2(c3ccc(O)cc3Oc3cc(O)ccc32)c2ccc(C(=O)*)cc21; mXylylene = c1cc(C[*:1])cc(C[*:2])c1

Target: T1, β-catenin (Homo sapiens, UniProt P35222)
T1 construct: cells harboring plasmid pGEX-β-catenin(133-665)52 were grown in LB medium; made in house; host or cells: E. coli BL21 (DE3)
T1 sequence (P35222 133-665): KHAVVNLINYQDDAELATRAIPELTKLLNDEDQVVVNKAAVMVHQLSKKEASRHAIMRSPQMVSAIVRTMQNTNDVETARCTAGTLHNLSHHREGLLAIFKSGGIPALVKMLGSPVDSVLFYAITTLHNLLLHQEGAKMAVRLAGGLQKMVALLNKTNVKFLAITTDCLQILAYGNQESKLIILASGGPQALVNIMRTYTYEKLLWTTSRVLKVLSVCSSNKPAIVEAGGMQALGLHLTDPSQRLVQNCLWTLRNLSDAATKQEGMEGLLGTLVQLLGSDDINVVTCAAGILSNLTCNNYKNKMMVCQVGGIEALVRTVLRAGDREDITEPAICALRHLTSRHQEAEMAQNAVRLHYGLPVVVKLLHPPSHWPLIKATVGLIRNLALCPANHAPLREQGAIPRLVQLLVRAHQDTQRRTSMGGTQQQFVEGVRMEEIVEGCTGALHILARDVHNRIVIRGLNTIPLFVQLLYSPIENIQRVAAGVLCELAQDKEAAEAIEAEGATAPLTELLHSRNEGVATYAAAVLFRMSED
Assay: FP direct binding of FAM-labeled peptide 1 to GST-β-catenin
Conditions: 10 nM peptide 1 with serial dilutions of GST-β-catenin, read-out: KD or IC50
Protocol: Protein-Ligand Binding Assays. Peptide 1: Binding affinity was determined using FP. Peptide 1 (10 nM) was added to serial dilutions of GST-β-catenin in 20 mM Tris, 300 mM NaCl, pH 8.8, 0.01% Triton-X100 as reported previously. 34 After 1 h, aliquots were transferred from the reaction mixtures into black-on-black 384-well non-binding plates (Greiner) and FP was measured using a Tecan Infinite M1000 Pro plate reader. The KD value was calculated using KaleidaGraph v. 3.6 using the equation below.
Protein Purification. For β-catenin, E. coli BL21 (DE3) cells harboring plasmid pGEX-β-catenin(133-665)52 were grown in LB medium supplemented with 50 mg/L ampicillin at 37° C. to an OD600 of 0.6 before induction with 0.2 mM IPTG overnight at 30° C. Cells were harvested by centrifugation and lysed in lysis buffer (20 mM Tris, pH 8.0, 150 mM NaCl, 2 mM DTT, 1% Triton-X100, 200 mM EDTA, 10 mg/mL PMSF, and 0.2 mg/mL lysozyme) on ice for 20 min, followed by sonication (8 s off, 2 s on, 1 min total, performed twice at 70% amplitude). The homogenate was centrifuged (13,000 g for 30 min at 4° C. and the clear supernatant was loaded onto an equilibrated glutathione-agarose column. After exhaustive washing with wash buffer (20 mM Tris, pH 7.4, 150 mM NaCl, 2 mM DTT), the bound GST-β-catenin was eluted with wash buffer supplemented with 10 mM glutathione, concentrated, and stored at −80° C. in 30% glycerol.

Compound: CC[C@H](C)[C@@H]1NC(=O)[C@@H](NC(=O)[C@H](CCC(=O)O)NC(=O)[C@@H]2CCCN2C(=O)[C@H](Cc2ccc(O)cc2)NC(=O)CNC(=O)CNC(=O)c2ccc3c(c2)C(=O)OC32c3ccc(O)cc3Oc3cc(O)ccc32)CSCc2cccc(c2)CSC[C@@H](C(=O)N[C@@H](Cc2c[nH]cn2)C(=O)N[C@@H](CC(C)C)C(=O)N[C@@H](CCC(N)=O)C(=O)N[C@@H](CCCNC(=N)N)C(=O)N[C@H](C(=O)N[C@H](C(=O)N[C@@H](CC(C)C)C(N)=O)[C@@H](C)CC)C(C)C)NC(=O)[C@H](CC(=O)O)NC(=O)[C@H](CC(C)C)NC1=O [peptide 1] (5FAM-GGYPECILDCHLQRVIL-NH2; linker 6-10 via mXylylene)
- Kd: 18 nM
